From ChEMBL document CHEMBL1201862, “PubChem BioAssay data set” (2004)
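Five concentrations, 48 hours, 96-well plates. GI50: concentration for 50% inhibition of growth.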 The source made the active and inactive calls. No stated cut-off is given here; in the data, active = GI50 up to about 1.1 µM and inactive = higher.

Experiments:
Assay in all cases: NCI tumour cell line growth inhibition, 48 h
ACHN = system: ACHN
CAKI-1 = system: CAKI-1
COLO 205 = system: COLO 205
HCC 2998 = system: HCC 2998
HT-29 = system: HT-29
KM12 = system: KM12
M14 = system: M14
Malme-3M = system: Malme-3M
NCI-H226 = system: NCI-H226
OVCAR-5 = system: OVCAR-5
SK-MEL-2 = system: SK-MEL-2
SN12C = system: SN12C
SR = system: SR
SW-620 = system: SW-620
U-251 = system: U-251
NCI-H522 = system: NCI-H522
SNB-75 = system: SNB-75

Measured: GI50

O=NN(CCCl)C(=O)NCc1ccc[n+]([O-])c1
inactive: ACHN > 100 µM | CAKI-1 > 100 µM | COLO 205 > 100 µM | HCC 2998 > 100 µM | HT-29 > 100 µM | KM12 > 100 µM | M14 > 100 µM | Malme-3M > 100 µM | NCI-H226 > 100 µM | OVCAR-5 > 100 µM | SK-MEL-2 > 100 µM | SN12C > 100 µM | SR 33 µM | SW-620 > 100 µM | U-251 43.2 µM

COc1cccc2nc3cc(C)c(C)cc3nc12
inactive: ACHN > 100 µM | CAKI-1 > 100 µM | COLO 205 > 100 µM | HCC 2998 > 100 µM | HT-29 > 100 µM | KM12 > 100 µM | M14 > 100 µM | Malme-3M > 100 µM | NCI-H226 > 100 µM | NCI-H522 95.9 µM | OVCAR-5 > 100 µM | SK-MEL-2 > 100 µM | SN12C > 100 µM | SNB-75 > 100 µM | SR > 100 µM | SW-620 > 100 µM | U-251 > 100 µM

CCOC(=O)CN(Cc1ccccc1)Cc1c(C(=O)c2ccccc2)c2ccccc2n1C(=O)c1ccccc1
inactive: ACHN > 100 µM | CAKI-1 > 100 µM | COLO 205 > 100 µM | HCC 2998 > 100 µM | HT-29 > 100 µM | KM12 > 100 µM | M14 > 100 µM | Malme-3M > 100 µM | NCI-H226 60 µM | NCI-H522 > 100 µM | OVCAR-5 > 100 µM | SK-MEL-2 > 100 µM | SN12C > 100 µM | SNB-75 18.3 µM | SR 41 µM | SW-620 > 100 µM | U-251 > 100 µM

COC(=O)CCC1CCc2c(OC)ccc(O)c2C1=O (stereo not drawn)
inactive: ACHN > 100 µM | COLO 205 > 100 µM | HCC 2998 > 100 µM | HT-29 > 100 µM | KM12 > 100 µM | M14 > 100 µM | Malme-3M > 100 µM | NCI-H226 28.7 µM | NCI-H522 > 100 µM | SK-MEL-2 > 100 µM | SN12C > 100 µM | SNB-75 66.4 µM | SR > 100 µM | SW-620 > 100 µM | U-251 > 100 µM

CCC1(Cl)C(=O)NC(=O)N(C2CC(O)C(CO)O2)C1N=[N+]=[N-] (stereo not drawn)
inactive: ACHN > 100 µM | CAKI-1 > 100 µM | COLO 205 > 100 µM | HCC 2998 > 100 µM | HT-29 > 100 µM | M14 > 100 µM | Malme-3M > 100 µM | NCI-H522 > 100 µM | OVCAR-5 > 100 µM | SK-MEL-2 > 100 µM | SN12C > 100 µM | SNB-75 > 100 µM | SW-620 > 100 µM | U-251 > 100 µM

COc1cc2c(cc1OC)[C@@H](Nc1ccc(F)cc1)C1COC(=O)[C@@H]1C2c1cc(OC)c(O)c(OC)c1 (stereo partly drawn)
active: ACHN 0.12 µM | CAKI-1 0.384 µM | NCI-H226 0.231 µM | SR 0.0421 µM | SW-620 0.512 µM | U-251 0.493 µM
inactive: COLO 205 12.5 µM | HCC 2998 2.65 µM | HT-29 3.66 µM | KM12 2.77 µM | M14 1.24 µM | Malme-3M 3.07 µM | NCI-H522 2.2 µM | OVCAR-5 3.33 µM | SK-MEL-2 5.42 µM | SN12C 1.56 µM | SNB-75 2.5 µM

Cc1ccc(C)c(N2C(=O)C(=O)C(c3nc4ccccc4o3)C(=O)C2=O)c1
inactive: ACHN > 100 µM | CAKI-1 > 100 µM | COLO 205 32.9 µM | HCC 2998 > 100 µM | HT-29 49.5 µM | KM12 > 100 µM | M14 36.1 µM | Malme-3M 49.2 µM | NCI-H226 > 100 µM | SK-MEL-2 > 100 µM | SN12C > 100 µM | SNB-75 95.1 µM | SR 28.8 µM | SW-620 46.3 µM | U-251 96.6 µM

COC(=O)c1cc2c3ccccc3n(C(C)=O)c2cn1
inactive: ACHN 53.8 µM | CAKI-1 23.2 µM | COLO 205 92.5 µM | HCC 2998 > 100 µM | HT-29 > 100 µM | KM12 80.5 µM | M14 > 100 µM | Malme-3M > 100 µM | NCI-H226 > 100 µM | NCI-H522 53.1 µM | OVCAR-5 > 100 µM | SK-MEL-2 > 100 µM | SN12C > 100 µM | SNB-75 25.6 µM | SR 45.6 µM | SW-620 > 100 µM | U-251 > 100 µM

COc1ccc([C@H]2[C@@H]3CCc4ccccc4C3=NN2C(N)=S)cc1OC
inactive: ACHN 32.7 µM | HCC 2998 > 100 µM | HT-29 40 µM | KM12 47.9 µM | M14 67.1 µM | Malme-3M 85.3 µM | NCI-H226 45.6 µM | NCI-H522 15.9 µM | OVCAR-5 > 100 µM | SK-MEL-2 50 µM | SN12C > 100 µM | SR 27 µM | SW-620 58.2 µM | U-251 60.3 µM

Cc1cn(C2CC3C(COCN3O)O2)c(=O)[nH]c1=O (stereo not drawn)
inactive: ACHN > 100 µM | COLO 205 > 100 µM | HCC 2998 > 100 µM | HT-29 > 100 µM | KM12 > 100 µM | M14 > 100 µM | NCI-H226 > 100 µM | OVCAR-5 > 100 µM | SN12C > 100 µM | SNB-75 97.3 µM | SR > 100 µM | SW-620 > 100 µM | U-251 > 100 µM

CC1OC(OC2C(OC(=O)[C@]34CCC(C)(C)CC3C3=CCC5[C@@]6(C)C[C@H](O)[C@H](OC7OC(CO)C(O)C(O)C7N)[C@@](C)(C(=O)O)C6CC[C@@]5(C)C3(C)CC4)OCC(O)C2O)C(O)C(O)C1OC1OCC(O)C(O)C1O (stereo partly drawn)
inactive: ACHN > 100 µM | CAKI-1 > 100 µM | COLO 205 > 100 µM | HCC 2998 > 100 µM | HT-29 > 100 µM | KM12 > 100 µM | Malme-3M > 100 µM | NCI-H226 > 100 µM | NCI-H522 > 100 µM | OVCAR-5 > 100 µM | SK-MEL-2 > 100 µM | SN12C > 100 µM | SNB-75 > 100 µM | SW-620 > 100 µM | U-251 > 100 µM

CC1=CC(=O)CCC2(C)C1CC[C@@H]2OC=O (stereo partly drawn)
inactive: ACHN > 100 µM | CAKI-1 > 100 µM | COLO 205 > 100 µM | HCC 2998 > 100 µM | HT-29 > 100 µM | KM12 > 100 µM | M14 > 100 µM | NCI-H226 > 100 µM | NCI-H522 > 100 µM | OVCAR-5 > 100 µM | SK-MEL-2 > 100 µM | SN12C > 100 µM | SNB-75 93.5 µM | SR > 100 µM | SW-620 > 100 µM | U-251 > 100 µM

CC1=CCC2(C#N)CCC1C2=O (stereo not drawn)
inactive: ACHN > 100 µM | CAKI-1 > 100 µM | COLO 205 > 100 µM | HT-29 > 100 µM | KM12 > 100 µM | M14 > 100 µM | Malme-3M > 100 µM | NCI-H226 > 100 µM | NCI-H522 > 100 µM | OVCAR-5 > 100 µM | SK-MEL-2 > 100 µM | SN12C > 100 µM | SR > 100 µM | SW-620 > 100 µM | U-251 > 100 µM

COc1cccc(NC(=O)C(C)(C)C)c1SSc1c(NC(=O)C(C)(C)C)cccc1OC
inactive: ACHN 33.5 µM | CAKI-1 > 42.5 µM | COLO 205 26.9 µM | HCC 2998 > 69.3 µM | HT-29 27.3 µM | KM12 26.9 µM | M14 17.5 µM | Malme-3M 33.7 µM | NCI-H226 > 53.8 µM | NCI-H522 14.2 µM | OVCAR-5 26.7 µM | SK-MEL-2 48.3 µM | SN12C 24.2 µM | SNB-75 40.6 µM | SR 19.2 µM | SW-620 18.2 µM | U-251 17.3 µM

CN(C)C(=O)Nc1c([N+](=O)[O-])cc(C(F)(F)F)cc1[N+](=O)[O-]
inactive: ACHN 83.4 µM | CAKI-1 > 100 µM | COLO 205 25 µM | HT-29 35 µM | KM12 37 µM | M14 44.6 µM | NCI-H226 > 100 µM | NCI-H522 29.9 µM | OVCAR-5 > 100 µM | SK-MEL-2 58.7 µM | SN12C 45.7 µM | SNB-75 74 µM | SR 58.7 µM | SW-620 32.7 µM | U-251 > 100 µM

Cc1cccc(C2SCc3nc4ccccc4n32)c1 (stereo not drawn)
inactive: ACHN 24.3 µM | CAKI-1 31 µM | COLO 205 > 10 µM | HT-29 27.9 µM | KM12 19.8 µM | M14 26.7 µM | Malme-3M 14.7 µM | NCI-H226 24.1 µM | NCI-H522 17.7 µM | OVCAR-5 5.25 µM | SK-MEL-2 18.5 µM | SN12C 19.5 µM | SNB-75 2 µM | SR 17.1 µM | SW-620 39.2 µM | U-251 19.7 µM

CC1=C2C(=O)C3[C@@H](CCC4=CC(=O)CC[C@@]43C)C2CC[C@]12O[C@@H]1C[C@H](C)CN[C@H]1[C@H]2C (stereo partly drawn)
inactive: ACHN 31.4 µM | CAKI-1 > 100 µM | COLO 205 73.6 µM | HCC 2998 > 100 µM | HT-29 39.8 µM | KM12 30.1 µM | M14 59 µM | NCI-H226 70.5 µM | NCI-H522 21 µM | SK-MEL-2 21.1 µM | SN12C 36.3 µM | SNB-75 72.8 µM | SR 17.1 µM | SW-620 57.9 µM | U-251 21.4 µM
